Consider 81 compounds from PubChem BioAssay AID720671 (NMMLSC, 2013).

pEC50: −log10 of the molar value. The source made the active and inactive calls. The rule behind the calls is not given here. Some results are limits rather than exact numbers.

A word on the EC50: it is the concentration giving half of the maximal effect. One may read the pEC50 as the EC50 on a negative log10 scale, so that one unit is a factor of ten.

The assay has as its target Botulinum neurotoxin type F light chain protease (Clostridium botulinum). Description: BoNT/F light chain protease inhibitors, dose response, biochemical, multiplex microsphere, Powder Set 03 (AID 720671). The conditions noted are these: multiplex microsphere protease cleavage assay, BoNT/F LC.
As to `O=S(=O)(Nc1ccc2nc(-c3ccccc3)c(-c3ccccc3)nc2c1)C1CC1`, the EC50 is > 20 µM (inactive).
For the compound `O=C(Nc1ccc2nc(-c3cccs3)c(-c3cccs3)nc2c1)OCc1ccccc1`, the EC50 was > 20 µM (inactive).
Consider `CC(C)NC(=O)Nc1ccc2nc(-c3ccccc3)c(-c3ccccc3)nc2c1`, for which the EC50 is > 20 µM (inactive).
The same measure, in the same setting: under `CCCCOC(=O)Nc1ccc2nc(-c3ccccc3)c(-c3ccccc3)nc2c1` stands > 20 µM (inactive).
Turning to `CCCS(=O)(=O)Nc1ccc2nc(-c3cccs3)c(-c3cccs3)nc2c1`, the EC50 was > 20 µM (inactive).
On the same count and under the same terms, for `CS(=O)(=O)c1ccc(-c2cn3nc(-c4ccccc4)c(-c4ccccc4)nc3n2)cc1` the value was > 20 µM (inactive).
For `CCS(=O)(=O)Nc1ccc2nc(-c3ccccc3)c(-c3ccccc3)nc2c1`, the EC50 is > 20 µM (inactive).
For `Fc1ccc(-c2nc3nc(-c4ccccc4)cn3nc2-c2ccc(F)cc2)cc1`, the negative-log EC50 (pEC50) was 5.05.
Take `CCCOC(=O)Nc1ccc2nc(-c3ccccc3)c(-c3ccccc3)nc2c1`: the EC50 was > 20 µM (inactive).
With `COc1ccc(-c2nc3nc(-c4ccccc4OC)cn3nc2-c2ccc(OC)cc2)cc1`, the pEC50 was 5.28.
`O=C(Nc1ccc2nc(-c3cccs3)c(-c3cccs3)nc2c1)C1CCC1`: the EC50 was > 20 µM (inactive).
Take `COc1ccc(-c2cn3nc(-c4ccc(F)cc4)c(-c4ccc(F)cc4)nc3n2)c(OC)c1`: the pEC50 is 5.82.
For `O=C(Nc1ccc2nc(-c3cccs3)c(-c3cccs3)nc2c1)C1CCCC1`, the EC50 is > 20 µM (inactive).
On to `N#Cc1ccc(-c2cn3nc(-c4ccc(F)cc4)c(-c4ccc(F)cc4)nc3n2)cc1`, for which the EC50 was > 20 µM (inactive).
With `Fc1ccc(-c2cn3nc(-c4ccccc4)c(-c4ccccc4)nc3n2)cc1`, the EC50 was > 20 µM (inactive).
With `Cc1ccc(-c2nc3nc(-c4ccc(OC(F)(F)F)cc4)cn3nc2-c2ccc(C)cc2)cc1`, the EC50 is > 20 µM (inactive).
Regarding `Cc1ccc(-c2nc3nc(-c4cccc(F)c4)cn3nc2-c2ccc(C)cc2)cc1`, the EC50 is > 20 µM (inactive).
As to `COc1cccc(-c2cn3nc(-c4ccc(F)cc4)c(-c4ccc(F)cc4)nc3n2)c1`, the pEC50 was 5.10.
Regarding `COc1ccc(-c2nc3nc(-c4cccc(OC)c4)cn3nc2-c2ccc(OC)cc2)cc1`, the EC50 is > 20 µM (inactive).
For `O=S(=O)(Nc1ccc2nc(-c3cccs3)c(-c3cccs3)nc2c1)C1CC1`, the EC50 is > 20 µM (inactive).
Same read-out and setting: for `COc1ccc(-c2nc3nc(-c4ccc(S(C)(=O)=O)cc4)cn3nc2-c2ccc(OC)cc2)cc1` the value was > 20 µM (inactive); for `CC(C)NC(=O)Nc1ccc2nc(-c3cccs3)c(-c3cccs3)nc2c1`, > 20 µM (inactive); for `CC(C)CS(=O)(=O)Nc1ccc2nc(-c3ccccc3)c(-c3ccccc3)nc2c1`, > 20 µM (inactive).
`CCCS(=O)(=O)Nc1ccc2nc(-c3ccccc3)c(-c3ccccc3)nc2c1`: the EC50 is > 20 µM (inactive).
As to `Fc1ccc(-c2nc3nc(-c4ccc(OC(F)(F)F)cc4)cn3nc2-c2ccc(F)cc2)cc1`, the EC50 was > 20 µM (inactive).
Still for that read-out and setting: under `COc1cccc(-c2cn3nc(-c4ccccc4)c(-c4ccccc4)nc3n2)c1` stands > 20 µM (inactive).
On to `COc1ccc(-c2cn3nc(-c4ccc(OC)cc4)c(-c4ccc(OC)cc4)nc3n2)cc1`, for which the EC50 was > 20 µM (inactive).
Same read-out and setting: for `COc1ccc(-c2cn3nc(-c4ccc(F)cc4)c(-c4ccc(F)cc4)nc3n2)cc1` the value was > 20 µM (inactive); for `COc1ccc(-c2nc3nc(-c4ccc(OC(F)(F)F)cc4)cn3nc2-c2ccc(OC)cc2)cc1`, > 20 µM (inactive).
Same read-out and setting: under `CC(C)(C)C(=O)Nc1ccc2nc(-c3ccccc3)c(-c3ccccc3)nc2c1` stands > 20 µM (inactive); under `CCC(=O)Nc1ccc2nc(-c3cccs3)c(-c3cccs3)nc2c1`, > 20 µM (inactive); under `COc1ccc(-c2cn3nc(-c4ccccc4)c(-c4ccccc4)nc3n2)c(OC)c1`, > 20 µM (inactive).
`COc1ccc(-c2nc3nc(-c4ccc(F)cc4)cn3nc2-c2ccc(OC)cc2)cc1`: the EC50 was > 20 µM (inactive).
Regarding `Cc1ccc(-c2nc3nc(-c4ccc(C#N)cc4)cn3nc2-c2ccc(C)cc2)cc1`, the pEC50 was 4.95.
Take `CCOC(=O)Nc1ccc2nc(-c3cccs3)c(-c3cccs3)nc2c1`: the EC50 is > 20 µM (inactive).
With `CCCNC(=O)Nc1ccc2nc(-c3ccccc3)c(-c3ccccc3)nc2c1`, the EC50 was > 20 µM (inactive).
Turning to `Cc1ccc(-c2nc3nc(-c4ccccc4)cn3nc2-c2ccc(C)cc2)cc1`, the pEC50 was 5.27.
With `CC(C)OC(=O)Nc1ccc2nc(-c3cccs3)c(-c3cccs3)nc2c1`, the EC50 was > 20 µM (inactive).
With `COc1ccc(-c2nc3nc(-c4cccc(F)c4)cn3nc2-c2ccc(OC)cc2)cc1`, the pEC50 is 5.36.
Turning to `COc1ccc(-c2nc3nc(-c4ccc(C#N)cc4)cn3nc2-c2ccc(OC)cc2)cc1`, the EC50 is > 20 µM (inactive).
On the same count and under the same terms, for `O=C(Nc1ccc2nc(-c3ccccc3)c(-c3ccccc3)nc2c1)NC1CCCC1` the value was > 20 µM (inactive); for `Cc1ccc(-c2cn3nc(-c4ccc(C)cc4)c(-c4ccc(C)cc4)nc3n2)cc1`, > 20 µM (inactive).
For the compound `O=C(Nc1ccc2nc(-c3ccccc3)c(-c3ccccc3)nc2c1)C1CCC1`, the EC50 was > 20 µM (inactive).
For the compound `COc1cccc(-c2cn3nc(-c4ccc(C)cc4)c(-c4ccc(C)cc4)nc3n2)c1`, the EC50 was > 20 µM (inactive).
As for `Clc1ccc(-c2cn3nc(-c4ccccc4)c(-c4ccccc4)nc3n2)c(Cl)c1`, the EC50 is > 20 µM (inactive).
`CC(C)CS(=O)(=O)Nc1ccc2nc(-c3cccs3)c(-c3cccs3)nc2c1`: the EC50 was > 20 µM (inactive).
On to `COc1ccc(-c2cn3nc(-c4ccc(C)cc4)c(-c4ccc(C)cc4)nc3n2)cc1`, for which the EC50 is > 20 µM (inactive).
For the compound `CCNC(=O)Nc1ccc2nc(-c3cccs3)c(-c3cccs3)nc2c1`, the EC50 is > 20 µM (inactive).
As to `O=C(Nc1ccc2nc(-c3ccccc3)c(-c3ccccc3)nc2c1)OCc1ccccc1`, the EC50 was > 20 µM (inactive).
With `O=C(Nc1ccc2nc(-c3ccccc3)c(-c3ccccc3)nc2c1)C1CC1`, the EC50 is > 20 µM (inactive).
Take `COc1ccc(-c2cn3nc(-c4ccc(C)cc4)c(-c4ccc(C)cc4)nc3n2)c(OC)c1`: the EC50 is > 20 µM (inactive).
As for `Cc1ccc(-c2nc3nc(-c4ccc(F)cc4)cn3nc2-c2ccc(C)cc2)cc1`, the EC50 is > 20 µM (inactive).
Take `CC(C)(C)NC(=O)Nc1ccc2nc(-c3ccccc3)c(-c3ccccc3)nc2c1`: the EC50 is > 20 µM (inactive).
`COC(=O)Nc1ccc2nc(-c3cccs3)c(-c3cccs3)nc2c1`: the EC50 was > 20 µM (inactive).
Still for that read-out and setting: under `COc1ccc(-c2nc3nc(-c4ccccc4)cn3nc2-c2ccc(OC)cc2)cc1` stands > 20 µM (inactive).
In the case of `Fc1cccc(-c2cn3nc(-c4ccccc4)c(-c4ccccc4)nc3n2)c1`, the negative-log EC50 (pEC50) is 4.74.
For the compound `CC(Oc1ccccc1)C(=O)Nc1ccc2nc(-c3ccccc3)c(-c3ccccc3)nc2c1` (stereo unspecified), the EC50 was > 20 µM (inactive).
As for `CCC(=O)Nc1ccc2nc(-c3ccccc3)c(-c3ccccc3)nc2c1`, the EC50 is > 20 µM (inactive).
As for `O=C(Nc1ccc2nc(-c3ccccc3)c(-c3ccccc3)nc2c1)C1CCCCC1`, the EC50 was > 20 µM (inactive).
Consider `Fc1ccc(-c2cn3nc(-c4ccc(F)cc4)c(-c4ccc(F)cc4)nc3n2)cc1`, for which the pEC50 is 5.40.
Turning to `COc1ccccc1-c1cn2nc(-c3ccc(C)cc3)c(-c3ccc(C)cc3)nc2n1`, the EC50 is > 20 µM (inactive).
On to `FC(F)(F)Oc1ccc(-c2cn3nc(-c4ccccc4)c(-c4ccccc4)nc3n2)cc1`, for which the EC50 was > 20 µM (inactive).
For `COc1ccc(-c2nc3nc(-c4ccc(OC)cc4OC)cn3nc2-c2ccc(OC)cc2)cc1`, the EC50 is > 20 µM (inactive).
As for `CCCCOC(=O)Nc1ccc2nc(-c3cccs3)c(-c3cccs3)nc2c1`, the EC50 was > 20 µM (inactive).
For `COc1ccccc1-c1cn2nc(-c3ccccc3)c(-c3ccccc3)nc2n1`, the EC50 was > 20 µM (inactive).
For the compound `N#Cc1ccc(-c2cn3nc(-c4ccccc4)c(-c4ccccc4)nc3n2)cc1`, the EC50 was > 20 µM (inactive).
The same measure, in the same setting: for `Cc1ccc(-c2nc3nc(-c4ccc(S(C)(=O)=O)cc4)cn3nc2-c2ccc(C)cc2)cc1` the value was > 20 µM (inactive); for `O=C(Nc1ccc2nc(-c3cccs3)c(-c3cccs3)nc2c1)NC1CCCC1`, > 20 µM (inactive); for `COC(=O)Nc1ccc2nc(-c3ccccc3)c(-c3ccccc3)nc2c1`, > 20 µM (inactive).
With `COc1ccccc1-c1cn2nc(-c3ccc(F)cc3)c(-c3ccc(F)cc3)nc2n1`, the pEC50 was 5.24.
Regarding `CC(=O)Nc1ccc2nc(-c3ccccc3)c(-c3ccccc3)nc2c1`, the EC50 is > 20 µM (inactive).
For the compound `CCCOC(=O)Nc1ccc2nc(-c3cccs3)c(-c3cccs3)nc2c1`, the EC50 was > 20 µM (inactive).
Consider `CCOC(=O)Nc1ccc2nc(-c3ccccc3)c(-c3ccccc3)nc2c1`, for which the EC50 is > 20 µM (inactive).
For `CC(C)OC(=O)Nc1ccc2nc(-c3ccccc3)c(-c3ccccc3)nc2c1`, the EC50 is > 20 µM (inactive).
Same read-out and setting: under `O=C(Nc1ccc2nc(-c3cccs3)c(-c3cccs3)nc2c1)C1CC1` stands > 20 µM (inactive).
In the case of `CCNC(=O)Nc1ccc2nc(-c3ccccc3)c(-c3ccccc3)nc2c1`, the EC50 was > 20 µM (inactive).
As to `Fc1ccc(-c2nc3nc(-c4cccc(F)c4)cn3nc2-c2ccc(F)cc2)cc1`, the pEC50 is 5.24.
Regarding `CS(=O)(=O)c1ccc(-c2cn3nc(-c4ccc(F)cc4)c(-c4ccc(F)cc4)nc3n2)cc1`, the EC50 was > 20 µM (inactive).
Still for that read-out and setting: under `COc1ccc(-c2nc3nc(-c4ccc(C)cc4)cn3nc2-c2ccc(OC)cc2)cc1` stands > 20 µM (inactive).
Consider `Cc1ccc(-c2cn3nc(-c4ccc(F)cc4)c(-c4ccc(F)cc4)nc3n2)cc1`, for which the EC50 is > 20 µM (inactive).
Same read-out and setting: under `O=C(Nc1ccc2nc(-c3ccccc3)c(-c3ccccc3)nc2c1)C1CCCC1` stands > 20 µM (inactive).
